# Measurements taken from patent US6316498A, “Fluorine-containing amino acid derivatives” (Taisho Pharmaceutical Co., Ltd., priority 1998, dated 2001).
# Test system: Methamphetamine-induced Hyperactivity in Mice
# Test: Effect on Methamphetamine-induced Hyperactivity in Mice
# Type: in vivo, male ICR-strain mice
# Conditions: for Count (30-minute quantity of movement): 1 mg/kg methamphetamine; for Inhibition rate: vs group given solvent only; for ED50: Mus musculus, po, methamphetamine-induced hyperactivity; for inhibition of methamphetamine-induced hyperactivity (in words): ANOVA P<0.05, LY354740 except 0.01 mg/kg group
# Description: (Effect on Methamphetamine-induced Hyperactivity in Mice)
# 11-12 male ICR-strain mice (body weights 23-32 g, Charles River Japan Inc.) were used for a group. The mice were housed in a transparent cylindrical measurement cage made of vinyl chloride (diameter 30 cm, height 30 cm) and were acclimated to their environment for 90 minutes.
# Next, each of the compounds listed in Table 2 was orally administered to the mice, and 30 minutes later, 1 mg/kg methamphetamine was administered […]. 15 minutes later, the 30-minute quantity of movement of the mice was measured by a count, using an automatic movement measurement device (SCANET/SV-10, from Toyo Sangyo Co., Ltd.). Each listed compound was used suspended in a solvent consisting of 0.3% Tween 80 physiological saline solution.
# The inhibition rate was determined from the count of the group of mice given solvent only and the count of the group of mice given each prescribed dosage of the compounds listed in Table 2, and the ED50 value was calculated. Statistical processing was done by analysis of variance (ANOVA), followed by Dunnet's test.
SMILES,Count (30-minute quantity of movement) (0.01 mg/kg p.o.),Inhibition rate (0.01 mg/kg p.o.),Count (30-minute quantity of movement) (0.1 mg/kg p.o.),Inhibition rate (0.1 mg/kg p.o.),Count (30-minute quantity of movement) (1 mg/kg p.o.),Inhibition rate (1 mg/kg p.o.),Count (30-minute quantity of movement) (10 mg/kg p.o.),Inhibition rate (10 mg/kg p.o.),ED50,inhibition of methamphetamine-induced hyperactivity (in words) (p.o.),"inhibition effect relative to LY354740 for methamphetamine-induced hyperactivity (p.o., vs LY354740, from ED50 values)"
"N[C@@]1(C(=O)O)CC[C@H]2[C@H](C(=O)O)[C@H]21 [LY354740, (+) - (1S, 2S, 5R, 6S)-2-aminobicyclo[3.1.0]hexane-2,6-dicarboxylic acid]",12000 ± 3216,-18.8%,6975 ± 1489,30.9%,4534 ± 1116,55.1%,3704 ± 1285,63.3%,0.87 mg/kg,the methamphetamine-induced hyperactivity was inhibited in a dose-dependent manner,
"N[C@]1(C(=O)O)[C@H]2[C@@H](C[C@@H]1F)[C@@H]2C(=O)O [Comp. 1, (1S,2S,3S,5R,6S)-2-amino-3-fluorobicyclo[3.1.0]hexane-2,6-dicarboxylic acid]",9512 ± 3005,19.6%,4291 ± 1283,63.7%,2353 ± 733,80.1%,,,0.05 mg/kg,A similar effect is also seen,17.4 times
